The results in this text go back to the NIST ThermoML archive (doi:10.1016/j.jct.2018.05.023).

Each structure is given as a SMILES string. ± gives the expanded uncertainty stated by the source.

Assay in one data set: not given
The note with it: Crystal; DTA.
Take `CCCCCCCCCCCCCCCC` [hexadecane]: the Normal melting temperature came out at 18 ± 1.1 °C.
Turning to `O` [water], the Normal melting temperature was found to be 0.4 ± 1.1 °C.
In the case of `CCCCCCCCCCCCCC` [tetradecane], the Normal melting temperature was found to be 5.8 ± 1.1 °C.
Still for that read-out and setting: in the case of `CCCCCCCCCCCCCCCCCCCC` [eicosane] it was 35.0 ± 1.1 °C; in that of `[Ga]` [gallium], 30.2 ± 1.1 °C.
Same read-out and setting: the figure for `C1CCCCC1` [cyclohexane] is 7 ± 1.1 °C; for `CCCCCCCCCCCC` [dodecane] it is -9.4 ± 1.1 °C.

Another data set in a line: Molar enthalpy of transition or fusion. The note with it: Crystal; DSC.
As to `[Ga]` [gallium], the “Molar enthalpy of transition or fusion” value is 1.39 ± 0.12 kcal/mol.
